Columns and labels:
Type in all cases: in vivo
[1] = system: ducksalad (Heteranthera limosa); test: Test B flooded paddy test; details: 250 g ai/ha, Flood; visual rating on scale of 0 to 100 where 0 is no effect and 100 is complete control; 13 to 15 d after treatment
Procedure, shortened: (§1)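 Plants grown to the 2-leaf stage. At treatment, pots were flooded to 3 cm above the soil, compound was applied directly to the paddy water, and that depth was held throughout. After 13 to 15 d in the greenhouse, response was rated visually against controls on a 0 (no effect) to 100 (complete control) scale.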

rice (Oryza sativa) = test: Test B flooded paddy test; details: 250 g ai/ha, Flood; visual rating on scale of 0 to 100 where 0 is no effect and 100 is complete control; 13 to 15 d after treatment
Procedure, shortened: as §1

[2] = system: sedge, umbrella (small-flower umbrella sedge, Cyperus difformis); test: Test B flooded paddy test; details: 250 g ai/ha, Flood; visual rating on scale of 0 to 100 where 0 is no effect and 100 is complete control; 13 to 15 d after treatment
Procedure, shortened: as §1

[3] = system: barnyardgrass (Echinochloa crus-galli); test: Test B flooded paddy test; details: 250 g ai/ha, Flood; visual rating on scale of 0 to 100 where 0 is no effect and 100 is complete control; 13 to 15 d after treatment
Procedure, shortened: as §1

[4] = system: oat, wild (wild oat, Avena fatua); test: Test C greenhouse herbicide test, postemergence
Procedure, shortened: (§2)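 Ratings are visual scores from 0 (no effect) to 100 (complete control), made against controls 13–15 d after treatment. Postemergence sprays were applied in the greenhouse to plants 2–18 cm tall (1- to 4-leaf stage) in peat-moss/vermiculite potting medium.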

[5] = system: chickweed (common chickweed, Stellaria media); test: Test C greenhouse herbicide test, postemergence
Procedure, shortened: as §2

[6] = system: galium (catchweed bedstraw, Galium aparine); test: Test A greenhouse herbicide test, postemergence; details: for Galium plant response rating: 0 is no effect, 100 is complete control
Procedure, shortened: (§3)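 Visual injury score, 0 (no effect) to 100 (complete control), versus untreated controls roughly 10 d after postemergence spray; plants at one- to two-leaf stage, 2 to 10 cm tall, in loam soil and sand, kept in greenhouse.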

[7] = system: blackgrass (Alopecurus myosuroides); test: Test A greenhouse herbicide test, postemergence; details: for Blackgrass plant response rating: 0 is no effect, 100 is complete control
Procedure, shortened: as §3

[8] = system: waterhemp_RES2 (ALS & HPPD resistant common waterhemp, Amaranthus rudis); test: Test E greenhouse herbicide test, postemergence
Procedure, shortened: (§4)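 Visual injury scored 0 (no effect) to 100 (complete control) versus untreated plants, 14 to 21 d after treatment in the greenhouse. Plants were treated postemergence at 1- to 4-leaf stage, 2–18 cm height, in peat-moss/vermiculite medium.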

[9] = system: waterhemp_RES1 (ALS & Triazine resistant common waterhemp, Amaranthus rudis); test: Test E greenhouse herbicide test, postemergence
Procedure, shortened: as §4

[10] = Postemergence, 31 g ai/ha, scale 0 to 100 (0 no effect, 100 complete control)
[11] = Postemergence, 62 g ai/ha, 0 to 100 scale (0 no effect, 100 complete control)
[12] = Postemergence, 250 g ai/ha, scale 0 to 100, 0 no effect, 100 complete control, 13 to 15 d
[13] = postemergence, 125 g ai/ha, scale 0 to 100, 0 no effect, 100 complete control
[14] = 125 g ai/ha, 0 to 100 scale, 0 no effect, 100 complete control
[15] = 500 g ai/ha, visual rating after approx. 10 d, 0 to 100 scale (0 no effect, 100 complete control)
[16] = 31 g ai/ha, visual, scale 0 no effect to 100 complete control
[17] = 125 g ai/ha, scale 0 to 100 (0 no effect, 100 complete control)
[18] = 250 g ai/ha, scale 0 to 100 (0 no effect, 100 complete control)
[19] = Postemergence, 125 g ai/ha, scale 0 to 100, 0 is no effect, 100 is complete control
[20] = postemergence, 62 g ai/ha, scale 0 to 100, 0 no effect, 100 complete control
[21] = Postemergence, 31 g ai/ha, 0 to 100 scale (0 no effect, 100 complete control)
[22] = 125 g ai/ha, 0 to 100 scale where 0 is no effect and 100 is complete control
[23] = 62 g ai/ha, scale 0 to 100 (0 no effect, 100 complete control)
[24] = Postemergence, 250 g ai/ha, scale 0 to 100, 0 is no effect, 100 is complete control

CC(=O)Oc1c(C)nn(C)c(=O)c1-c1c(C)cc(C)c2ccccc12 [Compound 153]
Plant response rating, Ducksalad [1]: 0 | Plant response rating, Rice (rice (Oryza sativa)): 0 | Plant response rating, Sedge, Umbrella [2]: 0 | Plant response rating, Barnyardgrass [3]: 0 | Plant response rating, Oat, Wild [4, 10]: 90 | Oat, Wild plant response rating [4, 11]: 95 | Plant response rating, Oat, Wild [4, 12]: 95 | Oat, Wild plant response rating [4, 13]: 95 | Plant response rating, Chickweed [5, 10]: 90 | Chickweed plant response rating [5, 11]: 95 | Plant response rating, Chickweed [5, 12]: 98 | Chickweed plant response rating [5, 13]: 98 | Plant response rating, Galium [6, 14]: 100 | Plant response rating, Galium [6, 15]: 100 | Plant response rating, Blackgrass [7, 14]: 90 | Plant response rating, Blackgrass [7, 15]: 90 | Plant response rating, Waterhemp_RES2 [8, 16]: 10 | Plant response rating, Waterhemp_RES2 [8, 17]: 30 | Plant response rating, Waterhemp_RES2 [8, 18]: 50 | Plant response rating, Waterhemp_RES1 [9, 16]: 50 | Plant response rating, Waterhemp_RES1 [9, 17]: 50 | Plant response rating, Waterhemp_RES1 [9, 18]: 60

Cc1cc(C)c2sc(C)c(-c3c(OC(=O)OCCCl)c(C)nn(C)c3=O)c2c1 [Compound 85]
Plant response rating, Ducksalad [1]: 50 | Plant response rating, Rice (rice (Oryza sativa)): 50 | Plant response rating, Sedge, Umbrella [2]: 80 | Plant response rating, Barnyardgrass [3]: 50 | Plant response rating, Oat, Wild [4, 19]: 95 | Plant response rating, Oat, Wild [4, 12]: 90 | Oat, Wild plant response rating [4, 20]: 90 | Chickweed plant response rating [5, 21]: 90 | Plant response rating, Chickweed [5, 19]: 95 | Plant response rating, Chickweed [5, 12]: 100 | Chickweed plant response rating [5, 20]: 95 | Plant response rating, Galium [6, 22]: 90 | Galium plant response rating ([6]; 500 g ai/ha, 0 to 100 scale): 100 | Plant response rating, Blackgrass [7, 22]: 90 | Blackgrass plant response rating ([7]; 500 g ai/ha, 0 to 100 scale): 90 | Plant response rating, Waterhemp_RES2 [8, 16]: 40 | Plant response rating, Waterhemp_RES2 [8, 17]: 40 | Plant response rating, Waterhemp_RES2 [8, 18]: 50 | Plant response rating, Waterhemp_RES1 [9, 16]: 80 | Plant response rating, Waterhemp_RES1 [9, 17]: 75 | Plant response rating, Waterhemp_RES1 [9, 18]: 80

CCC(=O)Oc1c(C)nn(C)c(=O)c1-c1c(C)sc2ccc(C)cc12 [Compound 42]
Plant response rating, Ducksalad [1]: 0 | Plant response rating, Rice (rice (Oryza sativa)): 0 | Plant response rating, Sedge, Umbrella [2]: 0 | Plant response rating, Barnyardgrass [3]: 0 | Oat, Wild plant response rating [4, 21]: 75 | Plant response rating, Oat, Wild [4, 19]: 90 | Plant response rating, Oat, Wild [4, 12]: 95 | Oat, Wild plant response rating [4, 20]: 90 | Chickweed plant response rating [5, 21]: 90 | Plant response rating, Chickweed [5, 19]: 100 | Plant response rating, Chickweed [5, 12]: 100 | Chickweed plant response rating [5, 20]: 100 | Plant response rating, Galium [6, 22]: 100 | Galium plant response rating ([6]; 500 g ai/ha, 0 to 100 scale): 100 | Plant response rating, Blackgrass [7, 22]: 80 | Blackgrass plant response rating ([7]; 500 g ai/ha, 0 to 100 scale): 90 | Plant response rating, Waterhemp_RES2 [8, 16]: 60 | Plant response rating, Waterhemp_RES2 [8, 23]: 65 | Plant response rating, Waterhemp_RES2 [8, 17]: 70 | Plant response rating, Waterhemp_RES2 [8, 18]: 80 | Plant response rating, Waterhemp_RES1 [9, 16]: 75 | Plant response rating, Waterhemp_RES1 [9, 23]: 75 | Plant response rating, Waterhemp_RES1 [9, 17]: 70 | Plant response rating, Waterhemp_RES1 [9, 18]: 98

CCOC(=O)Oc1c(C)nn(C)c(=O)c1-c1c(C)sc2ccc(C)cc12 [Compound 82]
Plant response rating, Ducksalad [1]: 0 | Plant response rating, Rice (rice (Oryza sativa)): 0 | Plant response rating, Sedge, Umbrella [2]: 0 | Plant response rating, Barnyardgrass [3]: 0 | Plant response rating, Oat, Wild [4, 19]: 90 | Plant response rating, Oat, Wild [4, 12]: 90 | Oat, Wild plant response rating [4, 20]: 85 | Chickweed plant response rating [5, 21]: 90 | Plant response rating, Chickweed [5, 19]: 90 | Plant response rating, Chickweed [5, 12]: 98 | Chickweed plant response rating [5, 20]: 90 | Plant response rating, Galium [6, 22]: 90 | Galium plant response rating ([6]; 500 g ai/ha, 0 to 100 scale): 90 | Plant response rating, Blackgrass [7, 22]: 70 | Blackgrass plant response rating ([7]; 500 g ai/ha, 0 to 100 scale): 70 | Plant response rating, Waterhemp_RES2 [8, 16]: 50 | Plant response rating, Waterhemp_RES2 [8, 17]: 60 | Plant response rating, Waterhemp_RES2 [8, 18]: 60 | Plant response rating, Waterhemp_RES1 [9, 16]: 60 | Plant response rating, Waterhemp_RES1 [9, 17]: 85 | Plant response rating, Waterhemp_RES1 [9, 18]: 95

CSCC(=O)Oc1c(C)nn(C)c(=O)c1-c1cccc2ccccc12 [Compound 171]
Plant response rating, Ducksalad [1]: 0 | Plant response rating, Rice (rice (Oryza sativa)): 0 | Plant response rating, Sedge, Umbrella [2]: 60 | Plant response rating, Barnyardgrass [3]: 0 | Plant response rating, Oat, Wild [4, 10]: 65 | Oat, Wild plant response rating [4, 11]: 90 | Plant response rating, Oat, Wild [4, 24]: 95 | Oat, Wild plant response rating [4, 13]: 90 | Plant response rating, Chickweed [5, 10]: 90 | Chickweed plant response rating [5, 11]: 90 | Plant response rating, Chickweed [5, 24]: 95 | Chickweed plant response rating [5, 13]: 90 | Plant response rating, Galium [6, 14]: 90 | Plant response rating, Galium [6, 15]: 100 | Plant response rating, Blackgrass [7, 14]: 80 | Plant response rating, Blackgrass [7, 15]: 90 | Plant response rating, Waterhemp_RES2 [8, 16]: 15 | Plant response rating, Waterhemp_RES2 [8, 17]: 40 | Plant response rating, Waterhemp_RES2 [8, 18]: 60 | Plant response rating, Waterhemp_RES1 [9, 16]: 50 | Plant response rating, Waterhemp_RES1 [9, 17]: 75 | Plant response rating, Waterhemp_RES1 [9, 18]: 90

CCOC(=O)Oc1c(C)nn(C)c(=O)c1-c1c(C)sc2c(C)cc(C)cc12 [Compound 83]
Plant response rating, Ducksalad [1]: 70 | Plant response rating, Rice (rice (Oryza sativa)): 30 | Plant response rating, Sedge, Umbrella [2]: 90 | Plant response rating, Barnyardgrass [3]: 60 | Plant response rating, Oat, Wild [4, 19]: 90 | Plant response rating, Oat, Wild [4, 12]: 95 | Oat, Wild plant response rating [4, 20]: 90 | Chickweed plant response rating [5, 21]: 90 | Plant response rating, Chickweed [5, 19]: 95 | Plant response rating, Chickweed [5, 12]: 100 | Chickweed plant response rating [5, 20]: 95 | Plant response rating, Galium [6, 22]: 100 | Galium plant response rating ([6]; 500 g ai/ha, 0 to 100 scale): 100 | Plant response rating, Blackgrass [7, 22]: 90 | Blackgrass plant response rating ([7]; 500 g ai/ha, 0 to 100 scale): 100 | Plant response rating, Waterhemp_RES2 [8, 16]: 30 | Plant response rating, Waterhemp_RES2 [8, 17]: 40 | Plant response rating, Waterhemp_RES2 [8, 18]: 50 | Plant response rating, Waterhemp_RES1 [9, 16]: 70 | Plant response rating, Waterhemp_RES1 [9, 17]: 80 | Plant response rating, Waterhemp_RES1 [9, 18]: 70

COC(=O)Oc1c(C)nn(C)c(=O)c1-c1c(C)sc2c(C)cc(C)cc12 [Compound 81]
Plant response rating, Ducksalad [1]: 70 | Plant response rating, Rice (rice (Oryza sativa)): 60 | Plant response rating, Sedge, Umbrella [2]: 80 | Plant response rating, Barnyardgrass [3]: 60 | Plant response rating, Oat, Wild [4, 19]: 95 | Plant response rating, Oat, Wild [4, 12]: 95 | Oat, Wild plant response rating [4, 20]: 90 | Chickweed plant response rating [5, 21]: 90 | Plant response rating, Chickweed [5, 19]: 95 | Plant response rating, Chickweed [5, 12]: 95 | Chickweed plant response rating [5, 20]: 90 | Plant response rating, Galium [6, 22]: 100 | Galium plant response rating ([6]; 500 g ai/ha, 0 to 100 scale): 100 | Plant response rating, Blackgrass [7, 22]: 90 | Blackgrass plant response rating ([7]; 500 g ai/ha, 0 to 100 scale): 90 | Plant response rating, Waterhemp_RES2 [8, 16]: 10 | Plant response rating, Waterhemp_RES2 [8, 17]: 50 | Plant response rating, Waterhemp_RES2 [8, 18]: 50 | Plant response rating, Waterhemp_RES1 [9, 16]: 50 | Plant response rating, Waterhemp_RES1 [9, 17]: 60 | Plant response rating, Waterhemp_RES1 [9, 18]: 65

From patent US10597388B2, “Pyridazinone herbicides” (FMC CORPORATION, priority 2014, dated 2020)
